Data on one compound can be found in US10233201B2, “Class of HDAC inhibitors expands the renal progenitor cells population and improves the rate of recovery from acute kidney injury” (University of Pittsburgh—Of the Commonwealth System of …, priority 2012, dated 2019).

The subject of data set [1] is cyp26a1, cmlc2. Briefly: In situ hybridization for RA-responsive genes in 18-somite embryos. The format is in vivo, zebrafish. Conditions: 3 μM. The procedure:
(§1) In situ hybridization and immunocytochemistry: In situ hybridization was performed as previously described with some modifications. 142 Hybridization temperature was 65° C. Embryos were blocked in 2% blocking reagent (Roche) with 5% sheep serum in MAB (100 mM maleic acid and 150 mM NaCl [pH 7.5]). Whole-mount immunocytochemistry with 1:25 mouse anti-α6F antibody (Developmental Studies Hybridoma Bank) and 1:100 Cy3 secondary antibody (Jackson ImmunoResearch) was performed as described previously. 108 Embryos were embedded in JB-4 for sectioning per the manufacturer's instructions (Polysciences), sectioned at 5 μm, and mounted with Cytoseal 60 (Richard-Allan Scientific).
HDACis are believed to lower the threshold of RA necessary to activate transcription. If PTBA treatment facilitates activation of the RA pathway, then expression of genes responsive to RA signaling should change. […] In a previous study, cmlc2 expression was assessed for RAdependent effects in 18-somite embryos (Keegan, B. R., Feldman, J. L., Begemann, G., Ingham, P. W. & Yelon, D. Retinoic acid signaling restricts the cardiac progenitor pool. Science 307, 247-249, (2005)), therefore embryos were collected at the 18-somite stage for continuity. […]

Data set [2] has as its system zebrafish larvae. Description: Phenotypic scoring of edema and survival in zebrafish larvae at 72 hpf. It is filed as in vivo. From the text: (§2) PTBA was synthesized as described below. Hydroxyurea and aphidicolin were obtained from Sigma-Aldrich.
Wild type: no visible edema or developmental delay.

Data set [3] has as its system histone H4 acetylation. Briefly: Histone H4 hyperacetylation Western blot in embryos. Conditions: 24 hpf embryos treated 6 hours; 3 μM PTBA, 25 μM PBA, 200 nM TSA. The format is in vivo, zebrafish. As for the experimental part:
It was next determined whether the HDACi function of PTBA was quantifiable in vivo. 24 hpf embryos were treated with 3 μM PTBA, 25 μM PBA, or 200 nM TSA for 6 hours. Protein extracts were prepared and immunoblotted with an anti-hyperacetylated histone H4 antibody. […] Furthermore, increasing the compound concentration caused a corresponding increase in hyperacetylation (FIG. 21).
SDS-PAGE and Western blotting were performed as described previously with some modifications (Noel, E. S. et al. Organ-specific requirements for Hdac1 in liver and pancreas formation. Dev Biol 322, 237-250, (2008)). Proteins were separated on 18% SDS-PAGE gels. Membranes were incubated at 4° C. overnight with 1:1000 anti-hyperacetylated histone H4 antibody (06-946, Millipore) or 1:1000 anti-α-tubulin antibody (Sigma-Aldrich) in PBT containing 5% nonfat milk.
For orientation: Immunoblotting shows a protein as a band on a membrane.

Data set [4] deals with pax2a, pax8 expression (kidney field). Description: In situ hybridization for renal progenitor markers pax2a, pax8 / kidney field. It is filed as in vivo, zebrafish. As for the experimental part:
as §2, §1

On to `O=C(O)CCCSc1ccccc1` [PTBA, 4-(phenylthio)butanoic acid], for which the “embryos with decreased cmlc2 expression” value in data set [1] stood at 100%. For the same compound, in data set [1], the “embryos with increased cyp26a1 expression” value was found to be 100%. Also, the “death by 72 hpf” value in data set [2] (3 μM) was “without causing significant death”; in data set [2] (10 μM, n=90), “died before 72 hpf”. For the same compound, the “edema in 72 hpf larvae” value in data set [2] (3 μM, treatment initiated at 15 somites or later) is “lack of edema”. For the same compound, in data set [2] (10 μM, larvae at 72 hpf), the “phenotype in initial chemical screen” value is recorded as “generated pericardial edema”. Moreover, the “larvae with edemic phenotype / pericardial edema at 72 hpf” value in data set [2] (treated from 2 hpf, 3 μM PTBA, 25 μM PBA, 200 nM TSA) worked out at 92%. Moreover, the “histone H4 hyperacetylation” value in data set [3] is “hyperacetylation was observed”. Moreover, the “embryos with expanded pax2a expression” value in data set [4] (3 μM, 10-somite embryos) is 95%. Further, the “pax2a expression at 24 hpf” value in data set [4] (3 μM, treatment begun at 16.5 hpf (15 somites)) is “no kidney field expansion”; in data set [4] (3 μM, treatment initiated between 2 hpf and 14 hpf (10 somites)), “expanded pax2a expression”. In data set [4] (screen hits, data not shown), the “effect on size of the kidney field / renal markers (in situ hybridization)” value was “appeared to expand the expression of some renal markers”.
